Measured values: patent publication US20230263817A1, “HIGH DOSE NICOTINAMIDE ADENINE DINUCLEOTIDE (NAD) PRECURSOR REGIMENS FOR REDUCTION OF INFLAMMATION IN HUMAN PATIENTS WITH PREEXISTING INFLAMMATION” (University of Washington, priority 2021, published 2023)

Experiments:
healthy PBMCs = experiment: Seahorse Mito Stress Test (OCR) of healthy PBMCs after 4-hour in vitro treatment; type: cell-based, human; details: for PBMC maximal OCR: 4-hour increasing concentrations of recombinant human IL1B or IL18
Protocol: (§1) PBMC and Monocyte isolation. 30-60 ml of fasting blood was collected into EDTA-containing Vacutainers (BD Mfr #364606). Blood then was diluted (1:1) with RPMI medium (Corning; Cat #17-105-CV) and applied to Histopaque gradient medium (Sigma-Aldrich; Cat #10771) using SepMate-50 (STEMCELL Technologies), and centrifuged at 1200 g for 10 minutes. Top layer contained the enriched peripheral blood mononuclear cells (PBMCs) which were collected and followed by centrifugation at 300 g for 10 minutes. The pellet was resuspended with ACK lysis buffer (Gibco; Cat. A1049201) and incubated at room temperature for 5 minutes to remove residual red blood cells. Next, the enriched PBMCs were washed twice with RPMI medium. All PBMC samples were subjected to the baseline Seahorse Mito Stress Test. When available, the remaining cells were used for cytokine mRNA quantitative PCR and in vitro assays. For monocyte isolation, a magnetic bead-based negative-selection monocyte isolation kit (Miltenyi Biotec, 130-096-537) was used per the manufacturer's instructions. Briefly, antibody-conjugated magnetic bead solution was added to isolated PBMCs resuspended in RPMI containing 0.5% BSA and incubated for 20 minutes at 4° C., followed by magnetic column binding and elution. The procedure was repeated once to improve the purity of monocytes. The monocytes were washed once with RPMI prior to subsequent experiments.
Seahorse Mito Stress Test. Oxygen consumption rate (OCR) of freshly isolated PBMCs was assessed using a Seahorse XFe24 analyzer (Agilent Technologies). Briefly, purified PBMCs were resuspended in Seahorse base medium (Agilent Technologies, supplemented with 1 mM pyruvate, 2 mM glutamine, and 10 mM glucose, pH 7.4), and added 10^6 cells/well at equal volume of 500 μL in a Seahorse 24-well plate. The cells were maintained in a non-CO2 incubator and allowed to settle for 30 minutes at 37° C. Next, the plate was centrifuged at 40 g for 10 minutes at room temperature without application of the brake to help cells attach to the bottom of the plate. Drugs used in the assay: 5 μM oligomycin A (Sigma-Aldrich; Cat. 75351), 3 μM Trifluoromethoxy carbonylcyanide phenylhydrazone (FCCP) (Sigma-Aldrich; Cat. C2920), 1 μM Rotenone (Sigma-Aldrich; Cat. […]), 1 μM Antimycin A (Sigma-Aldrich; Cat. […]), 0.5 mM TMPD (Sigma-Aldrich; Cat. T7394) and 10 mM Ascorbate (Sigma-Aldrich; Cat. 95209).
(§2) PBMC and Monocyte Culture. Freshly isolated PBMCs or Monocytes from healthy or HF subjects were resuspended with RPMI medium plus 10% heat inactivated FBS. PBMCs (10^6 cells/well) were seeded in Seahorse 24-well plates and incubated at 37° C. in CO2 incubator with various proinflammatory triggers (Vehicle, MitoDAMP, LPS) and compounds (NR, MCC 950, MitoTempo, or LMT-28). After 4 hours incubation, the plate was centrifuged at 40 g for 10 minutes at room temperature without application of the brake to help cells attach to the bottom of the plate. The cells were washed twice and then brought up to 500 μL using Seahorse base medium (Agilent Technologies, supplemented with 1 mM pyruvate, 2 mM glutamine, and 10 mM glucose, pH 7.4).

[1] = test system: NLRP3 and pro-inflammatory cytokine (IL1β, IL6, IL18, TNFα) mRNA in healthy PBMCs; experiment: RT-qPCR of NLRP3 and pro-inflammatory cytokine mRNA in healthy PBMCs treated in vitro; type: cell-based, human; details: 4-hour MitoDAMP with 0.5 mM MitoTempo relative to MitoDAMP alone
Protocol: as §2
IL6 ELISA. Isolated PBMCs (4×10^6 cells per sample) from healthy or HF participants were resuspended in RPMI medium containing 10% heat-inactivated FBS and treated with various proinflammatory triggers (Vehicle, MitoDAMP, LPS) and compounds (NR, MCC 950, MitoTempo, or LMT-28) to final PBMC concentrations of 10×10^6 cells per mL. See below for detailed descriptions of the reagents. The samples were incubated in Eppendorf tubes at 37° C. in a 5% CO2 incubator with caps open for times designated in the brief description of drawings. The cultured PBMC samples were centrifuged at 8,000 RPM at room temperature. The supernatant was used for ELISA per the manufacture protocol using R&D Systems human IL6 kit (Cat #DY206-05). The cell pellets were stored in −80° C.
RNA Isolation and Quantitative PCR analysis. Total RNA was isolated from frozen PBMC pellets using Trizol (Invitrogen) per the manufacturer's instructions, and cDNA was synthesized using iScript™ Reverse Transcription Supermix (Bio-rad) per the manufacturer's instructions. Real-time PCR was performed in the Corbett rotor gene 6000 real-time PCR machine using iQ™ SYBR® Green Supermix (Bio-rad) and expression levels of the indicated genes were calculated using the ΔΔCt method.

[2] = test system: monocytes isolated from healthy subjects; experiment: Maximal respiration of isolated monocytes after 4-hour IL6 treatment; type: cell-based; details: 4-hour 1 ng/mL recombinant human IL6
Protocol: as §1, with “Briefly, antibody-conjugated magnetic bead solution was added to isolated PBMCs resuspended in RPMI containing 0.5% BSA and incubated for 20 minutes at 4° C., followed by magnetic column binding and elution. The procedure was repeated once to improve the purity of monocytes. The monocytes were washed once with RPMI prior to subsequent experiments.” left out
Seahorse Mito Stress Test. Oxygen consumption rate (OCR) of freshly isolated PBMCs was assessed using a Seahorse XFe24 analyzer (Agilent Technologies). […]

Complex I = details: healthy PBMC, 4-hour IL6 (1 ng/mL) vs vehicle
Protocol: Complex I in vitro assay. This assay was performed using Abcam Complex I Enzyme Activity Microplate Assay Kit (ab109721), per the manufacturer's protocol. Briefly, following a 4-hour treatment with vehicle or IL6, 5×10^6 PBMCs were washed with PBS and lysed by detergent for 30 minutes on ice, followed by centrifugation at 16,000 g for 20 minutes at 4° C. Supernatant was taken for protein concentration determination. 12.5 μg of total protein in a final volume of 200 μL was incubated in microplates precoated with anti-Complex I antibody for 3 hours at room temperature. Post-washing step, NADH and dye were added, and optical density (OD) was serially measured at 450 nm over 1 hour. The slope of the curve within the linear range was recorded as Complex I activity.

Molecule: CC(C)(O)c1coc(S(=O)(=O)NC(=O)Nc2c3c(cc4c2CCC4)CCC3)c1 [MCC950]
- maximal OCR (healthy PBMCs; healthy PBMC, 4-hour MitoDAMP with 1 μM MCC950): marginally improved

Molecule: CC1(C)CC(NC(=O)C[P+](c2ccccc2)(c2ccccc2)c2ccccc2)CC(C)(C)N1[O] [MitoTempo]
- maximal OCR (healthy PBMCs; healthy PBMC, 4-hour MitoDAMP with 0.5 mM MitoTempo vs MitoDAMP alone): did not change
- cytokine gene expressions [1]: markedly attenuated

Molecule: IL18: human recombinant IL18, purchased from R&D Systems
- PBMC maximal OCR (healthy PBMCs; healthy PBMCs): did not result in a significant decrease

Molecule: recombinant IL1β: human recombinant IL1β, purchased from R&D Systems
- PBMC maximal OCR (healthy PBMCs; healthy PBMCs): did not result in a significant decrease

Molecule: recombinant IL6: human recombinant IL6, purchased from Gibco
- OCR through Complex IV (TMPD and ascorbate as electron donors) (healthy PBMCs; healthy PBMC, 4-hour IL6 (1 ng/mL) vs vehicle): no difference
- maximal OCR (healthy PBMCs; healthy PBMCs, 4-hour increasing concentrations of human recombinant IL6): dose-dependent decline
- lowest IL6 concentration with significant reduction of maximal OCR (healthy PBMCs; healthy PBMCs, 4-hour treatment): 0.1 ng/mL
- maximal OCR of monocytes [2]: decreased
- Complex I enzymatic activity (Complex I): reduced
